Measurements: PubChem BioAssay (NCI)
“And” between values parts separate entries of the source, which are not always exact repeats. Identical values can stand only once.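 Grown in 96-well plates, cells were treated for 48 hours with each compound at five concentrations. Insufficient inhibition: endpoint recorded as highest concentration tested. GI50 = concentration required for 50% inhibition of growth. The concentration for full growth arrest is given as TGI.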

What was measured:
Assay in all cases: NCI-60 cell line screen, 48 h
MOLT-4 leukemia = test system: MOLT-4 leukemia
IGROV1 ovarian = test system: IGROV1 ovarian
NCI-H226 lung = test system: NCI-H226 lung
MDA-N = test system: MDA-N
KM12 colon = test system: KM12 colon
MDA-MB-435 = test system: MDA-MB-435
OVCAR-4 ovarian = test system: OVCAR-4 ovarian
SF-539 CNS = test system: SF-539 CNS
RXF 393 renal = test system: RXF 393 renal
SK-MEL-2 melanoma = test system: SK-MEL-2 melanoma
SNB-75 CNS = test system: SNB-75 CNS
UACC-257 melanoma = test system: UACC-257 melanoma
T-47D breast = test system: T-47D breast
A498 renal = test system: A498 renal
HCT-116 colon = test system: HCT-116 colon
OVCAR-8 ovarian = test system: OVCAR-8 ovarian
786-0 renal = test system: 786-0 renal
HOP-92 NSCLC = test system: HOP-92 NSCLC
SNB-19 CNS = test system: SNB-19 CNS
SW-620 colon = test system: SW-620 colon
UACC-62 melanoma = test system: UACC-62 melanoma
SK-MEL-5 melanoma = test system: SK-MEL-5 melanoma
DU-145 prostate = test system: DU-145 prostate
HCC-2998 colon = test system: HCC-2998 colon
UO-31 renal = test system: UO-31 renal
PC-3 prostate = test system: PC-3 prostate
LOX IMVI melanoma = test system: LOX IMVI melanoma
MCF7 breast = test system: MCF7 breast
NCI-H522 lung = test system: NCI-H522 lung
K-562 leukemia = test system: K-562 leukemia
MALME-3M melanoma = test system: MALME-3M melanoma
SK-OV-3 ovarian = test system: SK-OV-3 ovarian
NCI-H460 lung = test system: NCI-H460 lung
SF-295 CNS = test system: SF-295 CNS
HOP-62 NSCLC = test system: HOP-62 NSCLC
U251 CNS = test system: U251 CNS
M14 melanoma = test system: M14 melanoma
NCI/ADR-RES ovarian = test system: NCI/ADR-RES ovarian
EKVX NSCLC = test system: EKVX NSCLC
HCT-15 colon = test system: HCT-15 colon
A549 NSCLC = test system: A549 NSCLC
OVCAR-5 ovarian = test system: OVCAR-5 ovarian
CAKI-1 renal = test system: CAKI-1 renal
SK-MEL-28 melanoma = test system: SK-MEL-28 melanoma
ACHN renal = test system: ACHN renal
SR leukemia = test system: SR leukemia
HT29 colon = test system: HT29 colon
CCRF-CEM leukemia = test system: CCRF-CEM leukemia
BT-549 breast = test system: BT-549 breast
NCI-H23 lung = test system: NCI-H23 lung
HL-60(TB) leukemia = test system: HL-60(TB) leukemia
HS 578T breast = test system: HS 578T breast
OVCAR-3 ovarian = test system: OVCAR-3 ovarian
RPMI-8226 leukemia = test system: RPMI-8226 leukemia
TK-10 renal = test system: TK-10 renal
COLO 205 colon = test system: COLO 205 colon
MDA-MB-231 breast = test system: MDA-MB-231 breast
SN12C renal = test system: SN12C renal
SF-268 CNS = test system: SF-268 CNS

CNc1ccc(C(=O)CC(O)CCC(C)C2OC(=O)CC(O)CC(=O)CC(O)CC(O)CC(O)CC(O)CC3(O)CC(O)C(C(=O)NCCN4CCOCC4)C(CC(OC4OC(C)C(O)C(N)C4O)/C=C/C=C/C=C/C=C\C=C/C=C/C=C/C2C)O3)cc1 (stereo not given)
TGI (MOLT-4 leukemia): > 100 µM | TGI (IGROV1 ovarian): > 100 µM | TGI (NCI-H226 lung): > 100 µM | TGI (MDA-N): > 100 µM | TGI (KM12 colon): > 100 µM | TGI (MDA-MB-435): > 100 µM | TGI (OVCAR-4 ovarian): > 100 µM | TGI (SF-539 CNS): > 100 µM | TGI (RXF 393 renal): > 100 µM | TGI (SK-MEL-2 melanoma): 79.1 µM | TGI (SNB-75 CNS): > 100 µM | TGI (UACC-257 melanoma): 1.94 µM | TGI (T-47D breast): > 100 µM | TGI (A498 renal): 0.8 µM | TGI (HCT-116 colon): > 100 µM | TGI (OVCAR-8 ovarian): 36.8 µM | TGI (786-0 renal): > 100 µM | TGI (HOP-92 NSCLC): > 100 µM | TGI (SNB-19 CNS): > 100 µM | TGI (SW-620 colon): > 100 µM | TGI (UACC-62 melanoma): > 100 µM

NC(=O)Nc1cc(-c2cccc(F)c2)sc1C(=O)N[C@H]1CCCNC1
GI50 (MOLT-4 leukemia): 0.0606 µM and 0.26 µM | TGI (MOLT-4 leukemia): > 10 µM and 1.8 µM | GI50 (IGROV1 ovarian): 0.0701 µM and 0.27 µM | TGI (IGROV1 ovarian): 1.16 µM and 1.74 µM | GI50 (SK-MEL-5 melanoma): 0.295 µM and 0.456 µM | TGI (SK-MEL-5 melanoma): 2.06 µM and 4.27 µM | GI50 (NCI-H226 lung): 1.09 µM and 0.57 µM | TGI (NCI-H226 lung): 8.69 µM and 2.9 µM | GI50 (KM12 colon): 0.00626 µM and 0.0351 µM | TGI (KM12 colon): 6.38 µM and 3.3 µM | GI50 (DU-145 prostate): 0.21 µM and 0.435 µM | TGI (DU-145 prostate): 2.07 µM and 3.81 µM | GI50 (HCC-2998 colon): 0.117 µM and 0.273 µM | TGI (HCC-2998 colon): 1.4 µM and 2.64 µM | GI50 (UO-31 renal): 0.213 µM and 0.304 µM | TGI (UO-31 renal): 1.79 µM and 1.29 µM | GI50 (PC-3 prostate): 0.502 µM and 0.521 µM | TGI (PC-3 prostate): > 10 µM and 17.5 µM | GI50 (LOX IMVI melanoma): 0.0603 µM and 0.199 µM | TGI (LOX IMVI melanoma): 1.04 µM and 1.12 µM | GI50 (MCF7 breast): 0.0285 µM and 0.144 µM | TGI (MCF7 breast): > 10 µM and 13.6 µM | GI50 (NCI-H522 lung): 0.291 µM and 0.273 µM | TGI (NCI-H522 lung): 4.87 µM and 2.23 µM | GI50 (MDA-MB-435): 0.069 µM and 0.181 µM | TGI (MDA-MB-435): 0.371 µM and 0.668 µM | GI50 (K-562 leukemia): 0.0949 µM and 0.254 µM | TGI (K-562 leukemia): > 10 µM and 10.5 µM | GI50 (OVCAR-4 ovarian): 0.222 µM and 0.31 µM | TGI (OVCAR-4 ovarian): > 10 µM and 17.3 µM | GI50 (SF-539 CNS): 0.0192 µM and 0.0616 µM | TGI (SF-539 CNS): 0.17 µM and 0.331 µM | GI50 (MALME-3M melanoma): 0.232 µM and 0.729 µM | TGI (MALME-3M melanoma): 4.95 µM and 6.8 µM | GI50 (SK-OV-3 ovarian): 0.132 µM and 0.329 µM | TGI (SK-OV-3 ovarian): 1.69 µM and 3.17 µM | GI50 (NCI-H460 lung): 0.207 µM and 0.467 µM | TGI (NCI-H460 lung): 3.32 µM and 4.22 µM | GI50 (SF-295 CNS): 0.0397 µM and 0.0882 µM | TGI (SF-295 CNS): 0.776 µM and 2.87 µM | GI50 (HOP-62 NSCLC): 0.0876 µM and 0.292 µM | TGI (HOP-62 NSCLC): 1.67 µM and 2.82 µM | GI50 (U251 CNS): 0.354 µM and 0.526 µM | TGI (U251 CNS): > 4.59 µM and 2.53 µM | GI50 (M14 melanoma): 0.031 µM and 0.102 µM | TGI (M14 melanoma): 0.476 µM and 0.525 µM | GI50 (NCI/ADR-RES ovarian): 2.19 µM and 3.16 µM | TGI (NCI/ADR-RES ovarian): > 10 µM and 19.8 µM | GI50 (RXF 393 renal): 0.00554 µM and 0.0395 µM | TGI (RXF 393 renal): 0.0255 µM and 0.244 µM | GI50 (EKVX NSCLC): 0.576 µM and 1 µM | TGI (EKVX NSCLC): > 5.79 µM and 8.28 µM | GI50 (SK-MEL-2 melanoma): 0.151 µM and 0.244 µM | TGI (SK-MEL-2 melanoma): > 3.75 µM and 3.15 µM | GI50 (SNB-75 CNS): 0.0316 µM and 0.102 µM | TGI (SNB-75 CNS): 1.01 µM and 1.07 µM | GI50 (HCT-15 colon): 1.3 µM and 1.96 µM | TGI (HCT-15 colon): > 7.18 µM and 10.7 µM | GI50 (A549 NSCLC): 0.188 µM and 0.356 µM | TGI (A549 NSCLC): 4.48 µM and 2.12 µM | GI50 (OVCAR-5 ovarian): 0.173 µM and 0.361 µM | TGI (OVCAR-5 ovarian): > 6.2 µM and 4.4 µM | GI50 (CAKI-1 renal): 0.184 µM and 0.888 µM | TGI (CAKI-1 renal): > 3.98 µM and 4.2 µM | GI50 (SK-MEL-28 melanoma): 2.95 µM and 3.53 µM | TGI (SK-MEL-28 melanoma): > 10 µM and 16.9 µM | GI50 (UACC-257 melanoma): 2.36 µM and 1.91 µM | TGI (UACC-257 melanoma): > 10 µM and 9.82 µM | GI50 (ACHN renal): 0.0512 µM and 0.0952 µM | TGI (ACHN renal): > 4.73 µM and 2.75 µM | GI50 (T-47D breast): 1.07 µM and 2.71 µM | TGI (T-47D breast): > 10 µM and 18.8 µM | GI50 (SR leukemia): 0.0312 µM and 0.14 µM | GI50 (A498 renal): 0.0173 µM and 0.0385 µM | TGI (A498 renal): 0.0984 µM and 0.194 µM | GI50 (HCT-116 colon): 0.327 µM and 0.428 µM | TGI (HCT-116 colon): 6.14 µM and 2.85 µM | GI50 (OVCAR-8 ovarian): 0.131 µM and 0.318 µM | TGI (OVCAR-8 ovarian): > 3.36 µM and 2.04 µM | GI50 (786-0 renal): 0.0717 µM and 0.166 µM | TGI (786-0 renal): 1.35 µM and 0.634 µM | GI50 (HT29 colon): 0.25 µM and 0.282 µM | TGI (HT29 colon): > 10 µM and 1.37 µM | GI50 (HOP-92 NSCLC): 0.0553 µM and 0.416 µM | TGI (HOP-92 NSCLC): 1.2 µM and 1.71 µM | GI50 (CCRF-CEM leukemia): 0.0414 µM and 0.124 µM | TGI (CCRF-CEM leukemia): > 2.96 µM and 3 µM | GI50 (SNB-19 CNS): 0.562 µM and 0.54 µM | TGI (SNB-19 CNS): > 5.85 µM and 6.88 µM | GI50 (SW-620 colon): 0.284 µM and 0.423 µM | TGI (SW-620 colon): > 5.03 µM and 3.36 µM | GI50 (BT-549 breast): 0.15 µM and 0.334 µM | TGI (BT-549 breast): 2.05 µM and 1.41 µM | GI50 (NCI-H23 lung): 0.038 µM and 0.193 µM | TGI (NCI-H23 lung): 1.52 µM and 2.63 µM | GI50 (HL-60(TB) leukemia): 0.101 µM and 0.291 µM | TGI (HL-60(TB) leukemia): 3.88 µM and 1.28 µM | GI50 (HS 578T breast): 0.0322 µM and 0.197 µM | GI50 (OVCAR-3 ovarian): 0.168 µM and 0.55 µM | TGI (OVCAR-3 ovarian): 4.56 µM and 5.17 µM | GI50 (UACC-62 melanoma): 0.388 µM and 0.353 µM | TGI (UACC-62 melanoma): > 5.1 µM and 3.43 µM | GI50 (RPMI-8226 leukemia): 0.66 µM and 0.482 µM | TGI (RPMI-8226 leukemia): > 8.22 µM and 6.11 µM | GI50 (TK-10 renal): 0.111 µM and 0.251 µM | TGI (TK-10 renal): 1.58 µM and 1.38 µM | GI50 (COLO 205 colon): 0.169 µM and 0.216 µM | TGI (COLO 205 colon): 0.937 µM and 0.645 µM | GI50 (MDA-MB-231 breast): 0.305 µM and 0.424 µM | TGI (MDA-MB-231 breast): 2.82 µM and 2.33 µM | GI50 (SN12C renal): 0.0889 µM and 0.218 µM | TGI (SN12C renal): 3.28 µM and 3.27 µM | GI50 (SF-268 CNS): 0.327 µM and 0.458 µM | TGI (SF-268 CNS): 3.35 µM and 4.14 µM
